Consider four compounds from patent publication US5824698A, “Antibacterial dibenzimidazole derivatives” (priority 1994, dated 1998).

Converted amounts (≈) assume the structure as drawn. Like-named read-outs stand apart in the source and are kept apart here.

Common to all, as to test: Antibacterial activity in vitro (MIC, standard agar method)
Format in all cases: cell-based

The test system of one assay is E. coli 1346. As to conditions: Escherichia coli, DST agar, 35° C., 20 hours, read-out: Minimum inhibitory concentration (MIC). The protocol: (§1) The minimum inhibitory concentration (MIC) of the substances investigated against gram-positive and gram-negative strains was determined using standard agar methods. The compounds were dissolved in a small amount of dimethyl sulphoxide, diluted with water and incorporated into liquified DST agar at 50° C. The thus-produced agar plates were used immediately thereafter in the test. The test concentrations lay between 128 and 0.06 μg/ml. The bacterial inoculation solutions were prepared from pre-cultures grown overnight, diluted and applied to the agar surface using an inoculation device (Denley A400). The plates were incubated at 35° C. for 20 hours. The MIC was determined as the lowest concentration of substance which prevented a visible growth. A scarcely visible turbidity and the growth of less than 5 colonies were ignored. The determinations of the antibacterial activities (Tab. 1) were carried out not only for the free bases, but also for the hydrochloride salt of each compound. The same values were obtained within experimental error.

Another assay concerns E. cloacae P 99. As to conditions: Enterobacter cloacae, P99, 20 h, read-out: Minimum inhibitory concentration (MIC). As to the method: as §1
Another assay relates to E. coli B. The settings on record: Escherichia coli, DST agar, 35° C., 20 hours, read-out: Minimum inhibitory concentration (MIC). As to the method:
as §1

For the next assay, the system named is P. aeruginosa 799/61. As to conditions: Pseudomonas aeruginosa, 799/61, 20 h, read-out: Minimum inhibitory concentration (MIC). As to the method:
as §1

In a further assay the test system is E. coli DC2. As to conditions: Escherichia coli, read-out: Minimum inhibitory concentration (MIC). The protocol: as §1
The next assay concerns E. coli 25922. As to conditions: read-out: Minimum inhibitory concentration (MIC). As to the method: as §1
In another assay the test system is K. oxytoca 1082E. The settings on record: Klebsiella oxytoca, DST agar, 35° C., 20 hours, read-out: Minimum inhibitory concentration (MIC). The protocol: as §1
Another assay deals with Staph. haemolyticus 75. As to conditions: Staphylococcus haemolyticus, DST agar, 35° C., 20 hours, read-out: Minimum inhibitory concentration (MIC). As to the method: as §1
The test system of another assay is Staph. aureus 25923. As to conditions: Staphylococcus aureus, DST agar, 35° C., 20 hours, read-out: Minimum inhibitory concentration (MIC). As to the method: as §1
The next assay deals with P. aeroguinosa 3351. As to conditions: 20 h, read-out: Minimum inhibitory concentration (MIC). The protocol:
as §1

For the next assay, the system named is S. marcescens. The settings on record: Serratia marcescens, 20 h, read-out: Minimum inhibitory concentration (MIC). As to the method: as §1
The next assay deals with E. coli 1527 E. As to conditions: Escherichia coli, 1527E, 20 h, read-out: Minimum inhibitory concentration (MIC). As to the method: as §1
The test system of the next assay is B. subtilis ATCC 585369. As to conditions: Bacillus subtilis, ATCC585369, DST agar, 35° C., 20 hours, read-out: Minimum inhibitory concentration (MIC). The protocol: as §1
Another assay relates to E. coli H560. The settings on record: Escherichia coli, H560, 20 h, read-out: Minimum inhibitory concentration (MIC). As to the method: as §1
The subject of another assay is Staph. aureus 887. As to conditions: Staphylococcus aureus, DST agar, 35° C., 20 hours, read-out: Minimum inhibitory concentration (MIC). The protocol:
as §1

Another assay deals with P. aeroginosa BA. As to conditions: DST agar, 35° C., 20 hours, read-out: Minimum inhibitory concentration (MIC). The protocol:
as §1

The next assay concerns S. aureus 101. As to conditions: Staphylococcus aureus, DST agar, 35° C., 20 hours, read-out: Minimum inhibitory concentration (MIC). As to the method: as §1
In the next assay the test system is E. faecalis 6. The settings on record: Enterococcus faecalis; E. faecalis 6; DST agar, 35° C., 20 hours; read-out: Minimum inhibitory concentration (MIC). As to the method:
as §1

In the next assay the test system is E. coli AS-19. The settings on record: Escherichia coli, AS19, DST agar, 35° C., 20 hours, read-out: Minimum inhibitory concentration (MIC). The protocol:
as §1

Assay [1] concerns E. coli K12 KEA-12 (GyrA). The settings on record: Escherichia coli, 20 h, read-out: Minimum inhibitory concentration (MIC). As to the method: as §1
A further assay relates to E. coli 159 R. As to conditions: Escherichia coli, 159R, 20 h, read-out: Minimum inhibitory concentration (MIC). As to the method:
as §1

A further assay deals with S. aureus 853. As to conditions: Staphylococcus aureus, DST agar, 35° C., 20 hours, read-out: Minimum inhibitory concentration (MIC). As to the method: as §1
[2] abbreviates: E. coli DC2, DST agar, 35° C., 20 hours.
Setting [3] is: Escherichia coli, E. coli 25922, DST agar, 35° C., 20 hours.

As for `COc1ccc(-c2nc3ccc(-c4ccc5nc(-c6ccc(OC)c(O)c6)[nH]c5c4)cc3[nH]2)cc1O` [Example 4, 5-[2'-(3-Hydroxy-4-methoxy-phenyl)-6,6'-dibenzimidazol-2-yl]-2-methoxy-phenol], the MIC in the assay with E. coli 1346 was at most 0.25 µg/mL; in the assay with E. cloacae P 99 it was above 128 µg/mL; in the assay on E. coli B, at most 0.25 µg/mL; in the assay on P. aeruginosa 799/61, above 128 µg/mL; in the assay on E. coli DC2 (setting [2]), 2 µg/mL (≈ 4.18 µM); in the assay with E. coli 25922 (Escherichia coli, 25922, 20 h), above 128 µg/mL. Further, the MIC in the assay with K. oxytoca 1082E is above 128 µg/mL; in the assay on Staph. haemolyticus 75, at most 0.25 µg/mL; with Staph. aureus 25923, 0.5 µg/mL (≈ 1.04 µM); in the assay on P. aeroguinosa 3351 it was above 128 µg/mL; with S. marcescens, above 128 µg/mL; in the assay with E. coli 1527 E, above 128 µg/mL. For the same compound, the MIC is at most 0.25 µg/mL in the assay on B. subtilis ATCC 585369; above 128 µg/mL in the assay with E. coli H560; 0.5 µg/mL (≈ 1.04 µM) with Staph. aureus 887; above 128 µg/mL in the assay on P. aeroginosa BA; at most 0.25 µg/mL in the assay on S. aureus 101; 32 µg/mL (≈ 66.9 µM) with E. faecalis 6. Further, the MIC in the assay on E. coli AS-19 is 1 µg/mL (≈ 2.09 µM); in assay [1], above 128 µg/mL.

Consider `Oc1cccc(-c2nc3ccc(-c4ccc5nc(-c6cccc(O)c6)[nH]c5c4)cc3[nH]2)c1` [Example 6, 3-[2'-(3-Hydroxy-phenyl)-6,6'-dibenzimidazol-2-yl]-phenol], for which the MIC with E. coli 1346 is 2 µg/mL (≈ 4.78 µM); in the assay with E. cloacae P 99 it was above 128 µg/mL; with E. coli B, 0.5 µg/mL (≈ 1.19 µM); in the assay on P. aeruginosa 799/61, above 128 µg/mL; in the assay on E. coli DC2 (setting [2]), 1 µg/mL (≈ 2.39 µM); with E. coli 25922 (setting [3]), above 128 µg/mL. For the same compound, the MIC with K. oxytoca 1082E was above 128 µg/mL; in the assay with Staph. haemolyticus 75 it was 1 µg/mL (≈ 2.39 µM); in the assay on Staph. aureus 25923, 2 µg/mL (≈ 4.78 µM); in the assay with P. aeroguinosa 3351, above 128 µg/mL; in the assay with S. marcescens, above 128 µg/mL; with E. coli 1527 E, above 128 µg/mL. The MIC in the assay on B. subtilis ATCC 585369 is 2 µg/mL (≈ 4.78 µM); in the assay on E. coli H560, above 128 µg/mL; in the assay on Staph. aureus 887 it was 2 µg/mL (≈ 4.78 µM); in the assay on P. aeroginosa BA, above 128 µg/mL; with S. aureus 101, 0.12 µg/mL (≈ 0.287 µM); in the assay with E. faecalis 6 it was 2 µg/mL (≈ 4.78 µM). For the same compound, the MIC is 1 µg/mL (≈ 2.39 µM) in the assay with E. coli AS-19 and above 128 µg/mL in assay [1].

For the compound `CCOc1ccc(-c2nc3ccc(-c4ccc5nc(-c6ccc(OCC)cc6)[nH]c5c4)cc3[nH]2)cc1` [Example 9, 2,2'-Bis-(4-ethoxy-phenyl)-6,6'-dibenzimidazole], the MIC is 16 µg/mL (≈ 33.7 µM) with E. coli 1346; above 128 µg/mL with E. cloacae P 99; above 128 µg/mL in the assay with E. coli B; above 128 µg/mL in the assay on P. aeruginosa 799/61; above 128 µg/mL in the assay with E. coli DC2 (DC2, 20 h); above 128 µg/mL in the assay on E. coli 25922 (Escherichia coli, 25922, 20 h). Besides, the MIC in the assay with K. oxytoca 1082E is above 128 µg/mL; in the assay on Staph. haemolyticus 75, 1 µg/mL (≈ 2.11 µM); with Staph. aureus 25923 it was 2 µg/mL (≈ 4.21 µM); in the assay on P. aeroguinosa 3351, above 128 µg/mL; with S. marcescens, above 128 µg/mL; in the assay on E. coli 159 R, above 128 µg/mL. Besides, the MIC is above 128 µg/mL in the assay on E. coli 1527 E; at most 0.5 µg/mL with B. subtilis ATCC 585369; above 128 µg/mL with E. coli H560; at most 0.5 µg/mL in the assay on Staph. aureus 887; above 128 µg/mL with P. aeroginosa BA; 64 µg/mL (≈ 135 µM) with E. faecalis 6. In addition, the MIC (with E. coli AS-19; in assay [1]) was above 128 µg/mL throughout.

For `N#Cc1ccc(-c2nc3ccc(-c4ccc5nc(-c6ccc(O)cc6)[nH]c5c4)cc3[nH]2)cc1` [Example 12, 4-[2'-(4-Hydroxy-phenyl)-6,6'-dibenzimidazol-2-yl]-benzonitrile], the MIC is 1 µg/mL (≈ 2.34 µM) with E. coli 1346; above 128 µg/mL in the assay on E. cloacae P 99; 2 µg/mL (≈ 4.68 µM) in the assay with E. coli B; above 128 µg/mL in the assay with P. aeruginosa 799/61; 8 µg/mL (≈ 18.7 µM) in the assay with E. coli DC2 (setting [2]); above 128 µg/mL in the assay with E. coli 25922 (setting [3]). In addition, the MIC is above 128 µg/mL with K. oxytoca 1082E; 0.25 µg/mL (≈ 0.585 µM) with Staph. haemolyticus 75; 1 µg/mL (≈ 2.34 µM) in the assay with Staph. aureus 25923; above 128 µg/mL in the assay with P. aeroguinosa 3351; above 128 µg/mL in the assay on E. coli 159 R; 2 µg/mL (≈ 4.68 µM) in the assay on B. subtilis ATCC 585369. In addition, the MIC in the assay with S. aureus 853 was 2 µg/mL (≈ 4.68 µM); with E. coli H560 it was above 128 µg/mL; with Staph. aureus 887, 2 µg/mL (≈ 4.68 µM); in the assay on P. aeroginosa BA, above 128 µg/mL; in the assay with S. aureus 101, 4 µg/mL (≈ 9.36 µM); with E. faecalis 6, 4 µg/mL (≈ 9.36 µM). The MIC in the assay on E. coli AS-19 is 32 µg/mL (≈ 74.9 µM); in assay [1] it was above 128 µg/mL.
